Measurements taken from patent US12234230B2, “Substituted benzyl-triazole compounds for Cbl-b inhibition, and further uses thereof” (Nurix Therapeutics, Inc., priority 2019, dated 2025).
Read-outs that look alike come from different tables or passages of the source.

Tests used:
[1] = target: Cbl-b (Homo sapiens (Human), UniProt Q13191); assay: Cbl-b displacement assay (Cbl-b inhibition assay), Biological Example 1; assay type: binding
Procedure: The ability of candidate compounds to displace a known inhibitor and thereby inhibit Cbl-b activity was measured by monitoring the interaction of Cbl-b with a fluorophore-labeled probe in the presence of the candidate compound.
Following the one hour incubation, the plates were read for TR-FRET signal at 520/620 nm using an Envision plate reader (Perkin Elmer).

[2] = tested on: primary human total T-cells; assay: Primary human total T-cell activation (IL-2 secretion, CD25 surface staining), Biological Example 2; settings: fold change over baseline; for CD25 staining CD3/CD28 0.3 μM / IL-2 secretion CD3/CD28 0.3 μM: 0.3 μM inhibitor; for CD25 staining CD3/CD28 0.3 μM / IL-2 secretion CD3/CD28 0.3 μM / CD25 staining CD3/CD28 1 μM / IL-2 secretion CD3/CD28 1 μM: anti-CD3 and anti-CD28 co-stimulation; for CD25 staining CD3/CD28 1 μM / IL-2 secretion CD3/CD28 1 μM / CD25 staining CD3 1 μM / IL-2 secretion CD3 1 μM: 1 μM inhibitor; for CD25 staining CD3 1 μM / IL-2 secretion CD3 1 μM / CD25 staining CD3 3 μM / IL-2 secretion CD3 3 μM: anti-CD3 stimulation alone; for CD25 staining CD3 3 μM / IL-2 secretion CD3 3 μM: 3 μM inhibitor
Procedure: Peripheral blood mononuclear cells (PBMC) were obtained either: 1) by using Ficoll-Paque™ (GE Healthcare) for separation of peripheral blood hematopoietic cells from buffy coats of healthy human donors; or 2) directly from LeukoPak donations. […] The cells were rested overnight at 37° C. 5% CO2. The Cbl-inhibitor was added to 1×10^5 cells per well and the plate was incubated for one hour at 37° C. in 5% CO2 at the concentrations indicated (Table 3) with a final DMSO concentration of <0.1%. For samples stimulated with anti-CD3 antibody and anti-CD28 antibody (anti-CD3/anti-CD28), the Cbl-b inhibitor concentrations tested were 1 μM, and 0.3 μM. For samples stimulated with anti-CD3 antibody alone (anti-CD3), the Cbl-b inhibitor concentrations tested were 3 μM, and 1 μM. […] To prepare plates with plate bound anti-CD3 antibody (OKT3), 96-well round bottom tissue culture plates were coated with 100 μL of anti-CD3 antibody (OKT3) at 10 μg/mL for 4 hours at 37° C. 5% CO2 in phosphate buffered saline (PBS). […] Cells were stimulated for 48 hours prior to harvesting the cell free supernatant and staining the cell population for surface marker assessment by flow cytometry. Supernatants were analyzed for cytokine secretion, including IL-2 by ELISA (R&D Systems, Peprotech or Life Technologies) or Luminex multiplex kits (Procarta Life Technologies) following the manufacturer's protocol. Cells were stained with anti-CD25 antibody (BD Biosciences) to assess levels of surface marker of activation.
Readouts were reported as fold change over baseline. Baseline for this study was the measurement obtained from total human T-cells stimulated with anti-CD3 antibody and with soluble anti-CD28 antibody, wherein the cells were not incubated with a Cbl-b inhibitor (Table 3).

[3] = 0.125 nM Cbl-b final concentration (Low), read-out: Cbl-b activity IC50 (Low)
[4] = read-out: IC50 values in the Cbl-b inhibition assay of Biological Example 1
[5] = 0.5 nM Cbl-b final concentration (High), read-out: Cbl-b activity IC50 (High)

Sequence of Cbl-b (Q13191 36-427): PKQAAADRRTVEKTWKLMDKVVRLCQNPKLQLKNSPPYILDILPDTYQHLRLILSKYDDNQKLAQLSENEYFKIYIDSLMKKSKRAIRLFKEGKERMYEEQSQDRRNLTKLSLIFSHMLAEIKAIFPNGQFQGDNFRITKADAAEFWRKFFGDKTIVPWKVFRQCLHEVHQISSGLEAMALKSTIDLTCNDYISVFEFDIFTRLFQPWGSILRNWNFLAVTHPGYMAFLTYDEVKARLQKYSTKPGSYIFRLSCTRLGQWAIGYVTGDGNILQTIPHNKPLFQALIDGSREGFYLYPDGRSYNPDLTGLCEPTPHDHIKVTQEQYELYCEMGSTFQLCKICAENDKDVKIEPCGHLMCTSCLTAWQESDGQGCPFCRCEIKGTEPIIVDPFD

C[C@@H]1CN(Cc2cc3c(c(C(F)(F)F)c2)CN(c2cccc([C@H](c4nncn4C)C4CCC4)c2)C3=O)CCC1(F)F [Compound 1, 2-(3-((R)-cyclobutyl(4-methyl-4H-1,2,4-triazol-3-yl)methyl)phenyl)-6-(((R)-4,4-difluoro-3-methylpiperidin-1-yl)methyl)-4-(trifluoromethyl)isoindolin-1-one]
IC50 [1, 3]: < 5 nM
IC50 [1, 4]: ≤ 5 nM
CD25 staining CD3/CD28 0.3 μM [2]: B (B indicates 1.24-1.39 fold)
IL-2 secretion CD3/CD28 0.3 μM [2]: B (B indicates 20-35 fold)
CD25 staining CD3/CD28 1 μM [2]: B (B indicates 1.24-1.39 fold)
IL-2 secretion CD3/CD28 1 μM [2]: B (B indicates 20-35 fold)
CD25 staining CD3 1 μM [2]: A (A indicates >2.5 fold)
IL-2 secretion CD3 1 μM [2]: A (A indicates >1.1 fold)
CD25 staining CD3 3 μM [2]: A (A indicates >2.5 fold)
IL-2 secretion CD3 3 μM [2]: A (A indicates >1.1 fold)

C[C@@H]1CN(Cc2cc3c(c(C(F)(F)F)c2)CN(c2cccc([C@@H](c4nncn4C)C4CCC4)c2)C3=O)CCC1(F)F [Compound 2, 2-(3-((S)-cyclobutyl(4-methyl-4H-1,2,4-triazol-3-yl)methyl)phenyl)-6-(((R)-4,4-difluoro-3-methylpiperidin-1-yl)methyl)-4-(trifluoromethyl)isoindolin-1-one]
IC50 [1, 3]: > 100 nM
IC50 [1, 4]: > 100 nM
IL-2 secretion CD3/CD28 0.3 μM [2]: A (A indicates >35 fold)
IL-2 secretion CD3/CD28 1 μM [2]: A (A indicates >35 fold)
CD25 staining CD3 1 μM [2]: A (A indicates >2.5 fold)
IL-2 secretion CD3 1 μM [2]: A (A indicates >1.1 fold)
CD25 staining CD3 3 μM [2]: A (A indicates >2.5 fold)
IL-2 secretion CD3 3 μM [2]: B (B indicates 0.70-1.1 fold)

C[C@H]1CCCN(Cc2cc3c(c(C(F)(F)F)c2)CN(c2cccc([C@@H](c4nncn4C)C4CCC4)c2)C3=O)C1 [Compound 4, 2-(3-((S)-cyclobutyl(4-methyl-4H-1,2,4-triazol-3-yl)methyl)phenyl)-6-(((S)-3-methylpiperidin-1-yl)methyl)-4-(trifluoromethyl)isoindolin-1-one]
IC50 [1, 3]: < 5 nM
IC50 [1, 4]: ≤ 5 nM

C[C@@H]1CN(Cc2cc3c(c(C4CC4)n2)CN(c2cccc([C@@H](c4nncn4C)C4CCC4)c2)C3=O)CCC1(F)F [Compound 5, 2-(3-((S)-cyclobutyl(4-methyl-4H-1,2,4-triazol-3-yl)methyl)phenyl)-4-cyclopropyl-6-(((R)-4,4-difluoro-3-methylpiperidin-1-yl)methyl)-2,3-dihydro-1H-pyrrolo[3,4-c]pyridin-1-one]
IC50 [1, 3]: 20 to 100 nM
IC50 [1, 4]: 20 to 100 nM
CD25 staining CD3/CD28 0.3 μM [2]: B (B indicates 1.24-1.39 fold)
IL-2 secretion CD3/CD28 0.3 μM [2]: C (C indicates <20 fold)
CD25 staining CD3/CD28 1 μM [2]: B (B indicates 1.24-1.39 fold)
IL-2 secretion CD3/CD28 1 μM [2]: C (C indicates <20 fold)
CD25 staining CD3 1 μM [2]: C (C indicates <1.5 fold)
IL-2 secretion CD3 1 μM [2]: C (C indicates <0.70 fold)
CD25 staining CD3 3 μM [2]: C (C indicates <1.5 fold)
IL-2 secretion CD3 3 μM [2]: C (C indicates <0.70 fold)

C[C@H]1CCCN(Cc2cc3c(c(C4CC4)n2)CN(c2cccc([C@@H](c4nncn4C)C4CCC4)c2)C3=O)C1 [Compound 6, 2-(3-((S)-cyclobutyl(4-methyl-4H-1,2,4-triazol-3-yl)methyl)phenyl)-4-cyclopropyl-6-(((S)-3-methylpiperidin-1-yl)methyl)-2,3-dihydro-1H-pyrrolo[3,4-c]pyridin-1-one]
IC50 [1, 3]: 20 to 100 nM
IC50 [1, 4]: 20 to 100 nM

Cn1cnnc1C(c1cccc(N2Cc3c(cccc3C(F)(F)F)C2=O)c1)C1COC1 (stereo not shown) [Compound 7, 2-(3-((4-methyl-4H-1,2,4-triazol-3-yl)(oxetan-3-yl)methyl)phenyl)-4-(trifluoromethyl)isoindolin-1-one]
IC50 [1, 3]: > 100 nM
IC50 [1, 4]: > 100 nM

Cn1cnnc1[C@@H](c1cccc(N2Cc3c(cccc3C(F)(F)F)C2=O)c1)C1CCC1 [Compound 8, (R)-2-(3-(cyclobutyl(4-methyl-4H-1,2,4-triazol-3-yl)methyl)phenyl)-4-(trifluoromethyl)isoindolin-1-one]
IC50 [1, 5]: 5 to 20 nM
IC50 [1, 4]: 5 to 20 nM

Cn1cnnc1[C@H](c1cccc(N2Cc3c(cccc3C(F)(F)F)C2=O)c1)C1CCC1 [Compound 9, (S)-2-(3-(cyclobutyl(4-methyl-4H-1,2,4-triazol-3-yl)methyl)phenyl)-4-(trifluoromethyl)isoindolin-1-one]
IC50 [1, 5]: > 100 nM

Cn1cnnc1C1(c2cccc(N3Cc4c(cccc4C(F)(F)F)C3=O)c2)CCOC1 (stereo not shown) [Compound 10, 2-(3-(3-(4-methyl-4H-1,2,4-triazol-3-yl)tetrahydrofuran-3-yl)phenyl)-4-(trifluoromethyl)isoindolin-1-one]
IC50 [1, 3]: > 100 nM

Cn1cnnc1C1(c2cccc(N3Cc4c(cccc4C(F)(F)F)C3=O)c2)CCCC1 [Compound 11, 2-(3-(1-(4-methyl-4H-1,2,4-triazol-3-yl)cyclopentyl)phenyl)-4-(trifluoromethyl)isoindolin-1-one]
IC50 [1, 5]: > 100 nM
IL-2 secretion CD3/CD28 0.3 μM [2]: C (C indicates <20 fold)
IL-2 secretion CD3/CD28 1 μM [2]: C (C indicates <20 fold)
CD25 staining CD3 1 μM [2]: C (C indicates <1.5 fold)
CD25 staining CD3 3 μM [2]: C (C indicates <1.5 fold)

Cc1cc(C(=O)Nc2cccc([C@@H](c3nncn3C)C3CCC3)c2)nc(C2CC2)n1 [Compound 12, (S)—N-(3-(cyclobutyl(4-methyl-4H-1,2,4-triazol-3-yl)methyl)phenyl)-2-cyclopropyl-6-methylpyrimidine-4-carboxamide]
IC50 [1, 5]: > 100 nM
IL-2 secretion CD3/CD28 0.3 μM [2]: C (C indicates <20 fold)
IL-2 secretion CD3/CD28 1 μM [2]: C (C indicates <20 fold)
CD25 staining CD3 1 μM [2]: C (C indicates <1.5 fold)
CD25 staining CD3 3 μM [2]: C (C indicates <1.5 fold)

Cc1cc(C(=O)Nc2cccc([C@H](c3nncn3C)C3CCC3)c2)nc(C2CC2)n1 [Compound 13, (R)—N-(3-(cyclobutyl(4-methyl-4H-1,2,4-triazol-3-yl)methyl)phenyl)-2-cyclopropyl-6-methylpyrimidine-4-carboxamide]
IC50 [1, 5]: > 100 nM
IL-2 secretion CD3/CD28 0.3 μM [2]: C (C indicates <20 fold)
IL-2 secretion CD3/CD28 1 μM [2]: C (C indicates <20 fold)
CD25 staining CD3 1 μM [2]: C (C indicates <1.5 fold)
CD25 staining CD3 3 μM [2]: C (C indicates <1.5 fold)

CC(c1cc2c(c(C(F)(F)F)c1)CN(c1cccc([C@@H](c3nncn3C)C3CCC3)c1)C2=O)N1CCC(F)(F)[C@H](C)C1 (stereo partly drawn) [Compound 14, 2-(3-((S)-cyclobutyl(4-methyl-4H-1,2,4-triazol-3-yl)methyl)phenyl)-6-(1-((R)-4,4-difluoro-3-methylpiperidin-1-yl)ethyl)-4-(trifluoromethyl)isoindolin-1-one]
IC50 [1, 3]: 20 to 100 nM
IC50 [1, 4]: 20 to 100 nM
CD25 staining CD3/CD28 0.3 μM [2]: B (B indicates 1.24-1.39 fold)
IL-2 secretion CD3/CD28 0.3 μM [2]: C (C indicates <20 fold)
IL-2 secretion CD3/CD28 1 μM [2]: C (C indicates <20 fold)
CD25 staining CD3 1 μM [2]: C (C indicates <1.5 fold)
IL-2 secretion CD3 1 μM [2]: C (C indicates <0.70 fold)
CD25 staining CD3 3 μM [2]: C (C indicates <1.5 fold)
IL-2 secretion CD3 3 μM [2]: C (C indicates <0.70 fold)

C[C@@H]1CN(Cc2cc3c(c(C(F)(F)F)c2)CN(c2cccc([C@@H](c4nncn4C)C4CCC4)c2)C3=O)CCO1 [Compound 15, 2-(3-((S)-cyclobutyl(4-methyl-4H-1,2,4-triazol-3-yl)methyl)phenyl)-6-(((R)-2-methylmorpholino)methyl)-4-(trifluoromethyl)isoindolin-1-one]
IC50 [1, 3]: 5 to 20 nM
IC50 [1, 4]: 5 to 20 nM
CD25 staining CD3/CD28 0.3 μM [2]: B (B indicates 1.24-1.39 fold)
IL-2 secretion CD3/CD28 0.3 μM [2]: C (C indicates <20 fold)
CD25 staining CD3/CD28 1 μM [2]: B (B indicates 1.24-1.39 fold)
IL-2 secretion CD3/CD28 1 μM [2]: C (C indicates <20 fold)
CD25 staining CD3 1 μM [2]: C (C indicates <1.5 fold)
IL-2 secretion CD3 1 μM [2]: C (C indicates <0.70 fold)
CD25 staining CD3 3 μM [2]: C (C indicates <1.5 fold)
IL-2 secretion CD3 3 μM [2]: C (C indicates <0.70 fold)

CC(c1cc2c(c(C(F)(F)F)c1)CN(c1cccc([C@@H](c3nncn3C)C3CCC3)c1)C2=O)N1CCC[C@H](C)C1 (stereo partly drawn) [Compound 16, 2-(3-((S)-cyclobutyl(4-methyl-4H-1,2,4-triazol-3-yl)methyl)phenyl)-6-(1-((S)-3-methylpiperidin-1-yl)ethyl)-4-(trifluoromethyl)isoindolin-1-one]
IC50 [1, 3]: 20 to 100 nM
IC50 [1, 4]: 20 to 100 nM
IL-2 secretion CD3/CD28 0.3 μM [2]: C (C indicates <20 fold)
IL-2 secretion CD3/CD28 1 μM [2]: B (B indicates 20-35 fold)
CD25 staining CD3 1 μM [2]: A (A indicates >2.5 fold)
IL-2 secretion CD3 1 μM [2]: B (B indicates 0.70-1.1 fold)
CD25 staining CD3 3 μM [2]: A (A indicates >2.5 fold)
IL-2 secretion CD3 3 μM [2]: B (B indicates 0.70-1.1 fold)

CC[C@@H]1CN(Cc2cc3c(c(C(F)(F)F)c2)CN(c2cccc([C@]4(c5nncn5C)C[C@@H](C)C4)c2)C3=O)CCO1 [Compound 28, 6-(((R)-2-ethylmorpholino)methyl)-2-(3-((1s,3S)-3-methyl-1-(4-methyl-4H-1,2,4-triazol-3-yl)cyclobutyl)phenyl)-4-(trifluoromethyl)isoindolin-1-one]
IC50 [1, 3]: 5 to 20 nM

Cn1cnnc1[C@]1(c2cccc(N3Cc4c(cc(CN5CCO[C@H](CC#N)C5)cc4C(F)(F)F)C3=O)c2)C[C@H](C)C1 [Compound 30, 2-((R)-4-((2-(3-((1s,3S)-3-methyl-1-(4-methyl-4H-1,2,4-triazol-3-yl)cyclobutyl)phenyl)-3-oxo-7-(trifluoromethyl)isoindolin-5-yl)methyl)morpholin-2-yl)acetonitrile]
IC50 [1, 3]: 5 to 20 nM
